Experimental data from US9714266B2, “Estra-1,3,5(10),16-tetraene-3-carboxamides for inhibition of 17β-hydroxysteroid dehydrogenase (AKR1C3)” (priority 2013, dated 2017).
Several values for one entry are separate records, joined by “and”; a condition that tells them apart may be missing. Equal entries are not always repeated.

Biological target: AKR1C3 (Homo sapiens (Human), UniProt P42330)
Assay: AKR1C3 enzyme assay (coumberone reduction, fluorescence)
Type: biochemical
Details: recombinant human AKR1C3, coumberone 0.3 μM, NADPH 10 μM; read-out: AKR1C3 enzyme inhibition IC50
Protocol: The AKR1C3-inhibitory action of the substances of this invention was measured in the AKR1C3 assay described in the paragraphs which follow. Essentially, the enzyme activity is measured by quantifying the coumberol formed from coumberone ([…]., and […]. AM. CHEM. SOC. 130, 14123-14128 (2008) […]., Bauman, D. R., Penning, T. M., and […]., Proc. Natl. Acad. Sci. USA 103, 13304-13309 (2006)). In this assay, the increase in the highly fluorescent coumberol can be determined by NADPH (nicotinamide adenine dinucleotide phosphate)-dependent reduction of the nonfluorescent coumberone by AKR1C3. […] NM_003739). This was expressed as the GST (glutathione S-transferase) fusion protein in E. coli and purified by means of glutathione-Sepharose affinity chromatography. The GST was removed by thrombin digestion with subsequent size exclusion chromatography (Dufort, I., Rheault, P., Huang, X F., Soucy, P., and Luu-The, V., Endocrinology 140, 568-574 (1999)). […] The concentration of the AKR1C3 was matched to the respective activity of the enzyme preparation and set such that the assay worked within the linear range. Typical concentrations were in the region of 1 nM. The reaction was stopped by adding 5 μl of a stop solution consisting of the inhibitor EM-1404 [F. Labrie et al. U.S. Pat. […] Subsequently, the fluorescence of coumberol was measured at 520 nm (excitation at 380 nm) with a suitable measuring instrument (Pherastar from BMG Labtechnologies).

Chain of AKR1C3 (P42330 whole entry): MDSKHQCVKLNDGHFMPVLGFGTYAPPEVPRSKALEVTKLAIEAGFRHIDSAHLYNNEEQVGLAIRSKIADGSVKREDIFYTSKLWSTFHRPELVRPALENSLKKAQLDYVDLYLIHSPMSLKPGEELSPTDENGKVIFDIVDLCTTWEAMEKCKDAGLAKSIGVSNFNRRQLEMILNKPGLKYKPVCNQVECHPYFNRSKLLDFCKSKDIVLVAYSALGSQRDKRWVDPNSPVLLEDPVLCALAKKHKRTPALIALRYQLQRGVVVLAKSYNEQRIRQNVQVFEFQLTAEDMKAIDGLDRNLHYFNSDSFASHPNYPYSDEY

| Compound | IC50 |
| --- | --- |
| COc1cncc(C2=CC[C@H]3[C@@H]4CCc5cc(C(N)=O)ccc5[C@H]4CC[C@]23C)c1 [Example 2, 17-(5-methoxypyridin-3-yl)oestra-1,3,5(10),16-tetraene-3-carboxamide] | 189 nM and 100 nM |
| C[C@]12CC[C@@H]3c4ccc(C(N)=O)cc4CC[C@H]3[C@@H]1CC=C2c1cncc(C(F)(F)F)c1 [Example 3, 17-[5-(trifluoromethyl)pyridin-3-yl]oestra-1,3,5(10),16-tetraene-3-carboxamide] | 46 nM and 25 nM |
| C[C@]12CC[C@@H]3c4ccc(C(N)=O)cc4CC[C@H]3[C@@H]1CC=C2c1cncnc1 [Example 5, 17-(pyrimidin-5-yl)oestra-1,3,5(10),16-tetraene-3-carboxamide] | 313 nM and 199 nM and 143 nM |
| C[C@]12CC[C@@H]3c4ccc(C(N)=O)cc4CC[C@H]3[C@@H]1CC=C2c1cncc(C#N)c1 [Example 6, 17-(5-cyanopyridin-3-yl)oestra-1,3,5(10),16-tetraene-3-carboxamide] | 346 nM |
| C[C@]12C[C@H](F)[C@@H]3c4ccc(C(=O)NCCS(N)(=O)=O)cc4CC[C@H]3[C@@H]1CC=C2c1cncc(F)c1 [Example 8, 11β-fluoro-17-(5-fluoropyridin-3-yl)-N-(2-sulphamoylethyl)oestra-1,3,5(10),16-tetraene-3-carboxamide] | 73 nM |
| C[C@]12CC[C@@H]3c4ccc(C(=O)N[C@H]5CCC[C@H]5O)cc4CC[C@H]3[C@@H]1CC=C2c1cncc(F)c1 [Example 9, 17-(5-fluoropyridin-3-yl)-N-[(1S,2R)-2-hydroxycyclopentyl]oestra-1,3,5(10),16-tetraene-3-carboxamide] | 61 nM and 81 nM |
| CC(C)(CO)CNC(=O)c1ccc2c(c1)CC[C@@H]1[C@@H]2CC[C@]2(C)C(c3cncc(F)c3)=CC[C@@H]12 [Example 10, 17-(5-fluoropyridin-3-yl)-N-[2-(hydroxymethyl)-2-methylpropyl]oestra-1,3,5(10),16-tetraene-3-carboxamide] | 97 nM and 46 nM |
| C[C@]12CC[C@@H]3c4ccc(C(=O)N[C@H]5CCC[C@@H]5O)cc4CC[C@H]3[C@@H]1CC=C2c1cncc(F)c1 [Example 11, 17-(5-fluoropyridin-3-yl)-N-[(1S,2S)-2-hydroxycyclopentyl]oestra-1,3,5(10),16-tetraene-3-carboxamide] | 34 nM and 20 nM |
| C[C@]12CC[C@@H]3c4ccc(C(=O)NC5(CO)CCCC5)cc4CC[C@H]3[C@@H]1CC=C2c1cncc(F)c1 [Example 13, 17-(5-fluoropyridin-3-yl)-N-[1-(hydroxymethyl)cyclopentyl]oestra-1,3,5(10),16-tetraene-3-carboxamide] | 108 nM and 79 nM |
| C[C@]12CC[C@@H]3c4ccc(C(=O)N5CCC(O)CC5)cc4CC[C@H]3[C@@H]1CC=C2c1cncc(F)c1 [Example 14, 17-(5-fluoropyridin-3-yl)oestra-1,3,5(10),16-tetraen-3-yl 4-hydroxypiperidin-1-yl ketone] | 54 nM and 37 nM |
| CC[C@@H](CO)NC(=O)c1ccc2c(c1)CC[C@@H]1[C@@H]2CC[C@]2(C)C(c3cncc(F)c3)=CC[C@@H]12 [Example 15, 17-(5-fluoropyridin-3-yl)-N—[(S)-1-(hydroxymethyl)propyl]oestra-1,3,5(10),16-tetraene-3-carboxamide] | 25 nM |
| CC(O)C(C)NC(=O)c1ccc2c(c1)CCC1C2CCC2(C)C(c3cncc(F)c3)=CCC12 [Example 18, rel-17-(5-fluoropyridin-3-yl)-N-[(1R,2R)-2-hydroxy-1-methylpropyl]oestra-1,3,5(10),16-tetraene-3-carboxamide] | 45 nM and 35 nM |
| CC(C)N(CCO)C(=O)c1ccc2c(c1)CC[C@@H]1[C@@H]2CC[C@]2(C)C(c3cncc(F)c3)=CC[C@@H]12 [Example 19, 17-(5-fluoropyridin-3-yl)-N-(2-hydroxyethyl)-N-isopropyloestra-1,3,5(10),16-tetraene-3-carboxamide] | 60 nM and 48 nM |
| C[C@]12CC[C@@H]3c4ccc(C(=O)NCCS(N)(=O)=O)cc4CC[C@H]3[C@@H]1CC=C2c1cccnc1 [Example 23, 17-(3-pyridyl)-N-(2-sulphamoylethyl)oestra-1,3,5(10),16-tetraene-3-carboxamide] | 9 nM |
| C[C@]12CC[C@@H]3c4ccc(C(=O)NCCS(N)(=O)=O)cc4CC[C@H]3[C@@H]1CC=C2c1cncc(C(F)(F)F)c1 [Example 24, N-(2-sulphamoylethyl)-17-[5-(trifluoromethyl)pyridin-3-yl]oestra-1,3,5(10),16-tetraene-3-carboxamide] | 17 nM |
| CNS(=O)(=O)CCNC(=O)c1ccc2c(c1)CC[C@@H]1[C@@H]2CC[C@]2(C)C(c3cncc(C(F)(F)F)c3)=CC[C@@H]12 [Example 25, N-[2-(N-methylsulphamoyl)ethyl]-17-[5-(trifluoromethyl)pyridin-3-yl]oestra-1,3,5(10),16-tetraene-3-carboxamide] | 48 nM |
| C[C@]12CC[C@@H]3c4ccc(C(=O)NCCC(N)=O)cc4CC[C@H]3[C@@H]1CC=C2c1cncc(F)c1 [Example 26, N-(3-amino-3-oxopropyl)-17-(5-fluoropyridin-3-yl)oestra-1,3,5(10),16-tetraene-3-carboxamide] | 5 nM |
| CNC(=O)CCNC(=O)c1ccc2c(c1)CC[C@@H]1[C@@H]2CC[C@]2(C)C(c3cncc(F)c3)=CC[C@@H]12 [Example 27, 17-(5-fluoropyridin-3-yl)-N-[3-(methylamino)-3-oxopropyl]oestra-1,3,5(10),16-tetraene-3-carboxamide] | 5 nM |
| C[C@]12CC[C@@H]3c4ccc(C(=O)N5CCC[C@H]5C(N)=O)cc4CC[C@H]3[C@@H]1CC=C2c1cncc(F)c1 [Example 30, 1-{[17-(5-fluoropyridin-3-yl)oestra-1,3,5(10),16-tetraen-3-yl]carbonyl}-L-prolinamide] | 12 nM |
| CC(C)(CNC(=O)c1ccc2c(c1)CC[C@@H]1[C@@H]2CC[C@]2(C)C(c3cncc(F)c3)=CC[C@@H]12)NS(C)(=O)=O [Example 31, 17-(5-fluoropyridin-3-yl)-N-{2-methyl-2-[(methylsulphonyl)amino]propyl}oestra-1,3,5(10),16-tetraene-3-carboxamide] | 19 nM |
| CCN(CCO)C(=O)c1ccc2c(c1)CC[C@@H]1[C@@H]2CC[C@]2(C)C(c3cncc(F)c3)=CC[C@@H]12 [Example 32, N-ethyl-17-(5-fluoropyridin-3-yl)-N-(2-hydroxyethyl)oestra-1,3,5(10),16-tetraene-3-carboxamide] | 11 nM |
| CN(CCCO)C(=O)c1ccc2c(c1)CC[C@@H]1[C@@H]2CC[C@]2(C)C(c3cncc(F)c3)=CC[C@@H]12 [Example 34, 17-(5-fluoropyridin-3-yl)-N-(3-hydroxypropyl)-N-methyloestra-1,3,5(10),16-tetraene-3-carboxamide] | 6 nM |
| C[C@]12CC[C@@H]3c4ccc(C(=O)NC[C@@H](O)CO)cc4CC[C@H]3[C@@H]1CC=C2c1cncc(F)c1 [Example 36, N—[(R)-2,3-dihydroxypropyl]-17-(5-fluoropyridin-3-yl)oestra-1,3,5(10),16-tetraene-3-carboxamide] | 6 nM |
| C[S+]([O-])CCNC(=O)c1ccc2c(c1)CC[C@@H]1[C@@H]2CC[C@]2(C)C(c3cncc(F)c3)=CC[C@@H]12 (some centres unmarked) [Example 37, 17-(5-fluoropyridin-3-yl)-N-[2-(methylsulphinyl)ethyl]oestra-1,3,5(10),16-tetraene-3-carboxamide] | 5 nM |
| CCNC(=O)c1ccc2c(c1)CC[C@@H]1[C@@H]2CC[C@]2(C)C(c3cncc(F)c3)=CC[C@@H]12 [Example 39, N-ethyl-17-(5-fluoropyridin-3-yl)oestra-1,3,5(10),16-tetraene-3-carboxamide] | 5 nM |
| COCCNC(=O)c1ccc2c(c1)CC[C@@H]1[C@@H]2CC[C@]2(C)C(c3cncc(F)c3)=CC[C@@H]12 [Example 41, 17-(5-fluoropyridin-3-yl)-N-(2-methoxyethyl)oestra-1,3,5(10),16-tetraene-3-carboxamide] | 8 nM |
| CC(C)S(=O)(=O)CCNC(=O)c1ccc2c(c1)CC[C@@H]1[C@@H]2CC[C@]2(C)C(c3cncc(F)c3)=CC[C@@H]12 [Example 42, 17-(5-fluoropyridin-3-yl)-N-[2-(isopropylsulphonyl)ethyl]oestra-1,3,5(10),16-tetraene-3-carboxamide] | 11 nM |
| CN(CCO)C(=O)c1ccc2c(c1)CC[C@@H]1[C@@H]2CC[C@]2(C)C(c3cncc(F)c3)=CC[C@@H]12 [Example 44, 17-(5-fluoropyridin-3-yl)-N-(2-hydroxyethyl)-N-methyloestra-1,3,5(10),16-tetraene-3-carboxamide] | 12 nM |
| C[C@H](O)CNC(=O)c1ccc2c(c1)CC[C@@H]1[C@@H]2CC[C@]2(C)C(c3cncc(F)c3)=CC[C@@H]12 [Example 45, 17-(5-fluoropyridin-3-yl)-N—[(S)-2-hydroxypropyl]oestra-1,3,5(10),16-tetraene-3-carboxamide] | 6 nM |
